Assay results: ChEMBL document CHEMBL2177000, “Pharmacokinetic optimization of class-selective histone deacetylase inhibitors and identification of associated candidate predictive biomarkers of hepatocellular carcinoma tumor response” (J Med Chem, 2012)

Columns and labels:
Cytochrome P450 2C19 = Cytochrome P450 2C19 (Homo sapiens, UniProt P33261); assay: Inhibition of CYP2C19 in human liver microsomes in presence of NADPH by LC-MS/MS method; format: ADME, Microsome
Cytochrome P450 2C9 = Cytochrome P450 2C9 (Homo sapiens, UniProt P11712); assay: Inhibition of CYP2C9 in human liver microsomes in presence of NADPH by LC-MS/MS method; format: ADME, Microsome
Histone deacetylase 11 = biological target: T1, Histone deacetylase 11 (Homo sapiens, UniProt Q96DB2); assay: Inhibition of HDAC11 using p53 (379 to 382 residues) based fluorogenic peptide substrate
T1 sequence (Q96DB2 whole entry): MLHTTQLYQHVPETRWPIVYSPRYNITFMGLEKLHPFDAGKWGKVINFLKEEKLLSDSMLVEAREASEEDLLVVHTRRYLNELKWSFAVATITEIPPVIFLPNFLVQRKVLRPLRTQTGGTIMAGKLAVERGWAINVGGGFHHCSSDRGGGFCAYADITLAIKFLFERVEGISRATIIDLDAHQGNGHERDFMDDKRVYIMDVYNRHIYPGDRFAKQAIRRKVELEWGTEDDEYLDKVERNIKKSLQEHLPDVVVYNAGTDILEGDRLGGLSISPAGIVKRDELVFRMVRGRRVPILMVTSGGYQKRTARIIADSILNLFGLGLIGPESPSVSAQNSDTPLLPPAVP

[1] = biological target: T2, Polyamine deacetylase HDAC10 (Homo sapiens, UniProt Q969S8); assay: Inhibition of HDAC10 using p53 (379 to 382 residues) based fluorogenic peptide substrate
T2 sequence (Q969S8 whole entry): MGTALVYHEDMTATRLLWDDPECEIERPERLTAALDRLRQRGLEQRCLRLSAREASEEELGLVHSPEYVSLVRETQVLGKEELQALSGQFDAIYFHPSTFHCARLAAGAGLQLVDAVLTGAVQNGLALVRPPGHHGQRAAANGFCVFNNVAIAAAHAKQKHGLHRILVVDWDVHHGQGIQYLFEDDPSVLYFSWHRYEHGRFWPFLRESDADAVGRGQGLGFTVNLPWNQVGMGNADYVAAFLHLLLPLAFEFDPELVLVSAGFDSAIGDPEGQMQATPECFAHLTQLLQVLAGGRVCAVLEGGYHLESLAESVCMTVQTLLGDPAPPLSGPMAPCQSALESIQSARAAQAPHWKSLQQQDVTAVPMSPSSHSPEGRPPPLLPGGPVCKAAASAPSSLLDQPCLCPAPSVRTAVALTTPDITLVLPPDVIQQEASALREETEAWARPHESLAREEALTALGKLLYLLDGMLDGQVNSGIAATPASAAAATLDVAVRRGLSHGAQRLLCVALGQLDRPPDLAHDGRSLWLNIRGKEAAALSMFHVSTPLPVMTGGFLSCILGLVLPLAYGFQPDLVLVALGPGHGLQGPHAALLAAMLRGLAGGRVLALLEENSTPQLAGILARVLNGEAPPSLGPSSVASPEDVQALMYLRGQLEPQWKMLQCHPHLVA

Histone deacetylase 8 = biological target: T3, Histone deacetylase 8 (Homo sapiens, UniProt Q9BY41); assay: Inhibition of HDAC8 using p53 (379 to 382 residues) based fluorogenic peptide substrate
T3 sequence (Q9BY41 whole entry): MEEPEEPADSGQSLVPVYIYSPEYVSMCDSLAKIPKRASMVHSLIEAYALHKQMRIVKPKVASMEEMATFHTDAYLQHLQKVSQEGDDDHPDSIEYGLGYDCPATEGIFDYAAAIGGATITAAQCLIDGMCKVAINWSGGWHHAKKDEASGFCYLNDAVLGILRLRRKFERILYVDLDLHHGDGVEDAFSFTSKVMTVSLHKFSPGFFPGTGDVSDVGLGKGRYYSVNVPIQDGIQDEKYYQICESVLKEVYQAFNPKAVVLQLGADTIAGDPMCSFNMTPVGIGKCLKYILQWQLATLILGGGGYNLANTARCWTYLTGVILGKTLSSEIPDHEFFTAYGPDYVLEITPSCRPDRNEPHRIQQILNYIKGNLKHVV

Histone deacetylase 7 = biological target: T4, Histone deacetylase 7 (Homo sapiens, UniProt Q8WUI4); assay: Inhibition of HDAC7 using p53 (379 to 382 residues) based fluorogenic peptide substrate
T4 sequence (Q8WUI4 whole entry): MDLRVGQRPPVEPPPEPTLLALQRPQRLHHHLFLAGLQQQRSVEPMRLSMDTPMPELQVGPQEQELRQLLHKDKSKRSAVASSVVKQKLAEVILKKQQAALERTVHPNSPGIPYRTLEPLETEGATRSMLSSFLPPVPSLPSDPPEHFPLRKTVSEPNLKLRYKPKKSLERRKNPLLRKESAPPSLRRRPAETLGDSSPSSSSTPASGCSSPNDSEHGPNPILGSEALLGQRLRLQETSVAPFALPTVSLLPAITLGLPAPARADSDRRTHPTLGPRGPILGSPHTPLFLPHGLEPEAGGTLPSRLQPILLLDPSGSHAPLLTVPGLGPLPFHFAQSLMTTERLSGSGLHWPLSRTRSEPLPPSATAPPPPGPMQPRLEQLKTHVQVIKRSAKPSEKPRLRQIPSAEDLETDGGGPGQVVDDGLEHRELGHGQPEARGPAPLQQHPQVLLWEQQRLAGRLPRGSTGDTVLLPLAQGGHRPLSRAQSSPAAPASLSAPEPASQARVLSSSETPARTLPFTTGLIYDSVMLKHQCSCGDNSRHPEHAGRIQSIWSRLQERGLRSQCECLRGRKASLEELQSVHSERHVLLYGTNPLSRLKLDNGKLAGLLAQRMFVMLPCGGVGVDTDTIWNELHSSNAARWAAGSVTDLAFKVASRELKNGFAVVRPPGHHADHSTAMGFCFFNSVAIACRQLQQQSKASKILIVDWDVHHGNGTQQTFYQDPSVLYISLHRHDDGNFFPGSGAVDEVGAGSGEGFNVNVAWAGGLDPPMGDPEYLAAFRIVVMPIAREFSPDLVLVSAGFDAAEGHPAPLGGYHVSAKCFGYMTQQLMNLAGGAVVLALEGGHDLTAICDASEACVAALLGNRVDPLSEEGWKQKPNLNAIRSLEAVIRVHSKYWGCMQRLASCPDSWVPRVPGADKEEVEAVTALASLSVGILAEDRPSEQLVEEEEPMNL

Histone deacetylase 5 = Histone deacetylase 5 (Homo sapiens, UniProt Q9UQL6); assay: Inhibition of HDAC5 using p53 (379 to 382 residues) based fluorogenic peptide substrate
Histone deacetylase 4 = Histone deacetylase 4 (Homo sapiens, UniProt P56524); assay: Inhibition of HDAC4 using p53 (379 to 382 residues) based fluorogenic peptide substrate
Histone deacetylase 1 = Histone deacetylase 1 (Homo sapiens, UniProt Q13547); assay: Inhibition of HDAC1 using p53 (379 to 382 residues) based fluorogenic peptide substrate
Histone deacetylase 3 = Histone deacetylase 3 (Homo sapiens, UniProt O15379); assay: Inhibition of HDAC3 using p53 (379 to 382 residues) based fluorogenic peptide substrate
Histone deacetylase 2 = Histone deacetylase 2 (Homo sapiens, UniProt Q92769); assay: Inhibition of HDAC2 using p53 (379 to 382 residues) based fluorogenic peptide substrate
Sequence of Histone deacetylase 2 (Q92769 whole entry, the tested form may be a part): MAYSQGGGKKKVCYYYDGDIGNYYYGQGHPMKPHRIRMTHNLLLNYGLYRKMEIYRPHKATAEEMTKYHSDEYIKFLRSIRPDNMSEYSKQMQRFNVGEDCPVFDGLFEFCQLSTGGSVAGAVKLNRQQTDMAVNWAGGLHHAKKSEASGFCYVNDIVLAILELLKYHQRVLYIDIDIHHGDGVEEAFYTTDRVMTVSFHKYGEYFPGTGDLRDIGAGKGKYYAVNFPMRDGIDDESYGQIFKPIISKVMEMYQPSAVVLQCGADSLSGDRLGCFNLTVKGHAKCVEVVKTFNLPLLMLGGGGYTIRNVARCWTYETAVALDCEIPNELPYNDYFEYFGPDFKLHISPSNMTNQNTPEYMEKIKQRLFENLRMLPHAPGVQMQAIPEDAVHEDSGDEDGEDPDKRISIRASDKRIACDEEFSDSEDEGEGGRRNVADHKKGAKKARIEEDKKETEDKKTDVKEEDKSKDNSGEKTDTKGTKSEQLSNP

Sequence of Histone deacetylase 3 (O15379 whole entry, the tested form may be a part): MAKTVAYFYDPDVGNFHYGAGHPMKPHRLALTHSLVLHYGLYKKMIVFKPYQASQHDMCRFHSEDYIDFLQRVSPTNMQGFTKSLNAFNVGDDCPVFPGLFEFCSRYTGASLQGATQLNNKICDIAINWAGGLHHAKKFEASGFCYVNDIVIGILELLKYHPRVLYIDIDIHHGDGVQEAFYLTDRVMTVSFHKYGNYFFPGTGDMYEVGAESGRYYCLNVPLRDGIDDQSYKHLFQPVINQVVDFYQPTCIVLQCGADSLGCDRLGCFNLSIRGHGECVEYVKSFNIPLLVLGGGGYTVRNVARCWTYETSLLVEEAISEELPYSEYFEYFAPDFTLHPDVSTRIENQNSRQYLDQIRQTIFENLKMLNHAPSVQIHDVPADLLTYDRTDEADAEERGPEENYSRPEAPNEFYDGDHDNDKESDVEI
Sequence of Cytochrome P450 2C9 (P11712 whole entry, the tested form may be a part): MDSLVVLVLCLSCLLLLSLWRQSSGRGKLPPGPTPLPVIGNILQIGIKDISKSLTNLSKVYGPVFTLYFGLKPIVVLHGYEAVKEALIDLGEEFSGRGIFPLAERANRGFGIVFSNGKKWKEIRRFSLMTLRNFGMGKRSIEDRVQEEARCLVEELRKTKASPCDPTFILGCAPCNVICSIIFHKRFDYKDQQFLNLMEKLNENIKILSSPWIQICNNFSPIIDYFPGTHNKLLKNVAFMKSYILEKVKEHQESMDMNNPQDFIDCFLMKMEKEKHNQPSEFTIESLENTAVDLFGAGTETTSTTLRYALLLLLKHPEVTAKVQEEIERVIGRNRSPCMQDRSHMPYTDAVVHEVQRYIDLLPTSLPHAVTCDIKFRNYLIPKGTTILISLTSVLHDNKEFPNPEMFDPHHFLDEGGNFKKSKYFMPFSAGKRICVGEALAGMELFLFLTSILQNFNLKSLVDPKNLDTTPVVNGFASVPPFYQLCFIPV
Sequence of Histone deacetylase 1 (Q13547 whole entry, the tested form may be a part): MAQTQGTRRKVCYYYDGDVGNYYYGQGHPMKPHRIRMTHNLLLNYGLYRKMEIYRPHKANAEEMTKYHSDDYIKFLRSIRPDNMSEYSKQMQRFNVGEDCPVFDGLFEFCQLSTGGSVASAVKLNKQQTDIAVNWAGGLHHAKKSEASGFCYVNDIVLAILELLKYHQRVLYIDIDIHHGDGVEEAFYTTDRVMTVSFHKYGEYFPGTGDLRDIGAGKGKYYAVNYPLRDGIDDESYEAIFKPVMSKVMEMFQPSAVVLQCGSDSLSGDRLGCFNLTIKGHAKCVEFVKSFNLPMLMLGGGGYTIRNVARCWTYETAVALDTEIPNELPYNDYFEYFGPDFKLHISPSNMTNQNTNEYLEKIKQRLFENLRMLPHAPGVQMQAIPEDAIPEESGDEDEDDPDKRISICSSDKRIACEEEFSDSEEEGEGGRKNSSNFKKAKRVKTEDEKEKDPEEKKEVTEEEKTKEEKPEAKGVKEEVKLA
Sequence of Histone deacetylase 5 (Q9UQL6 whole entry, the tested form may be a part): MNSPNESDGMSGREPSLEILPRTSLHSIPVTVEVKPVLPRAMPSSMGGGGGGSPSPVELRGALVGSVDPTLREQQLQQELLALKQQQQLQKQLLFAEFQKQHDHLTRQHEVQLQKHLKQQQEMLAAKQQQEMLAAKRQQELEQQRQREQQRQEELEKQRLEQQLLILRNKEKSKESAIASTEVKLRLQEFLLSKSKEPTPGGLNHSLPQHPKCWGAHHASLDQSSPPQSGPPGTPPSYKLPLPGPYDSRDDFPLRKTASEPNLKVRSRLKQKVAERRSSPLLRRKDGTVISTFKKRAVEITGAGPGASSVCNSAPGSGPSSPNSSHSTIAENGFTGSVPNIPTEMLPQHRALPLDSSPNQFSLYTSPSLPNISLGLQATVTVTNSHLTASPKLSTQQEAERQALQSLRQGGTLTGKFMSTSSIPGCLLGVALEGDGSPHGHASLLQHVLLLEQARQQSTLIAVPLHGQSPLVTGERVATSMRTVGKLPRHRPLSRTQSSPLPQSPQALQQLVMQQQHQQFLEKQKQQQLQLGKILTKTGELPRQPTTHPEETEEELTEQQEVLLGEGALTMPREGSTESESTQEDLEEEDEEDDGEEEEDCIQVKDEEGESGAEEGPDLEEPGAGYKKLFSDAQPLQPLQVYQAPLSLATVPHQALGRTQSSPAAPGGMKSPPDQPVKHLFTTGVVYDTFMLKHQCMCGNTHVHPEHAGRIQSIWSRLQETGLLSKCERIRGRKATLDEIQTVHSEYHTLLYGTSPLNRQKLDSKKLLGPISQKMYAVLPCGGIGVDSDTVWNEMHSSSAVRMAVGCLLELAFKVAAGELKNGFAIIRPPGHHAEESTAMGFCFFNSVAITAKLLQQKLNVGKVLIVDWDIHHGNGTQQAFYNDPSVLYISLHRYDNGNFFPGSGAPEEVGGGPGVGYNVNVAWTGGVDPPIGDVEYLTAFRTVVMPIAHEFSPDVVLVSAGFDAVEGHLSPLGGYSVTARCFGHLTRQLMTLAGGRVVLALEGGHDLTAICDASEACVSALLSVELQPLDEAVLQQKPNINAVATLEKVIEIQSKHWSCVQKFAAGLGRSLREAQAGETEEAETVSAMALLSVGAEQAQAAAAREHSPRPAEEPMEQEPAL
Sequence of Histone deacetylase 4 (P56524 whole entry, the tested form may be a part): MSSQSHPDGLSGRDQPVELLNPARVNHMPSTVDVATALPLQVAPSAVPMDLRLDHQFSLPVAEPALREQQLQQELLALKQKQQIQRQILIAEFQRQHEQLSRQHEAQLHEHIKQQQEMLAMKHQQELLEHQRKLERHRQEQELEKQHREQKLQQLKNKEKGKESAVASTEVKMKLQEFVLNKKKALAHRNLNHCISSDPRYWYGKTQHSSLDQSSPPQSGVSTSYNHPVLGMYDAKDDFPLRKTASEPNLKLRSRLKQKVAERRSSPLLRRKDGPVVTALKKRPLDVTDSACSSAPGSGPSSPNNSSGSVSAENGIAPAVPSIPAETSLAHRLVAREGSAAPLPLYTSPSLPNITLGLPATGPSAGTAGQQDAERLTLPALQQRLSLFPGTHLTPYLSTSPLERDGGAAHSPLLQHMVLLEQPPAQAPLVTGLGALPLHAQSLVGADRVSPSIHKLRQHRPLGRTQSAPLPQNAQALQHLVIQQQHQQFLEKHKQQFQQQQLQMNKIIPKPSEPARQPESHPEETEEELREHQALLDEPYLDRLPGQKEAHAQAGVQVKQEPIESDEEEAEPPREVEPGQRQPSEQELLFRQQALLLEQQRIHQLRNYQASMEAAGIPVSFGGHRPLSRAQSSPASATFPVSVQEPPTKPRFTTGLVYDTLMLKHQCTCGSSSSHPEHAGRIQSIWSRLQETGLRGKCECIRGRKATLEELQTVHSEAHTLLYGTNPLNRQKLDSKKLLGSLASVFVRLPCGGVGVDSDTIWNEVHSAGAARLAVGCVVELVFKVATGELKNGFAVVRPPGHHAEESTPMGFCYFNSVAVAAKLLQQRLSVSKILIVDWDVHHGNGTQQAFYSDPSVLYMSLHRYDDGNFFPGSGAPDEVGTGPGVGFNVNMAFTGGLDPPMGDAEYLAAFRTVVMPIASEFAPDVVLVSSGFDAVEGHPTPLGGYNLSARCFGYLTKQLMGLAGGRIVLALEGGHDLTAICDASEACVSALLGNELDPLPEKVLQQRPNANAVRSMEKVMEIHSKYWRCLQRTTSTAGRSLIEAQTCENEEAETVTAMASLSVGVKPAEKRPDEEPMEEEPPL
Sequence of Cytochrome P450 2C19 (P33261 whole entry): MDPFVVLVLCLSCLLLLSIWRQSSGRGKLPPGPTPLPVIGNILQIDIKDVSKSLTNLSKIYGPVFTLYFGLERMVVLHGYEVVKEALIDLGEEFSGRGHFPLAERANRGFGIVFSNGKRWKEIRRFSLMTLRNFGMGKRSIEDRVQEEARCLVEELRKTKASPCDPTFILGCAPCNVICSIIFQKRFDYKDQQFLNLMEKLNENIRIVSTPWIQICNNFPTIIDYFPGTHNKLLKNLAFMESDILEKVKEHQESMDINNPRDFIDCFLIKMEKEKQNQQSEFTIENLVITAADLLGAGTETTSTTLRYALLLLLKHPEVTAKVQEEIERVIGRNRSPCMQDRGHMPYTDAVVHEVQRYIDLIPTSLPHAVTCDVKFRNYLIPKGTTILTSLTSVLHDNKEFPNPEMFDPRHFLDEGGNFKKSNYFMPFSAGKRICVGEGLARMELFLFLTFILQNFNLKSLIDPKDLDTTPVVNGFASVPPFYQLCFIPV

Row | Structure (SMILES) | IC50 (Cytochrome P450 2C19) [µM] | IC50 (Cytochrome P450 2C9) [µM] | IC50 (Histone deacetylase 11) [µM] | IC50 [1] [µM] | IC50 (Histone deacetylase 8) [µM] | IC50 (Histone deacetylase 7) [µM] | IC50 (Histone deacetylase 5) [µM] | IC50 (Histone deacetylase 4) [µM] | IC50 (Histone deacetylase 1) [µM] | IC50 (Histone deacetylase 3) [µM] | IC50 (Histone deacetylase 2) [µM]
1 | CN1C[C@@H](C(=O)Nc2ccc(Cl)cc2)[C@H](c2ccc(/C=C/C(=O)Nc3ccccc3N)cc2)C1 | 43 | 23 | 20 | 1.6 | > 30 | > 30 | 1.1 | 36 | 0.14 | 0.2 | 0.27
2 | CN1C[C@H](C(=O)Nc2ccc(Cl)cc2)[C@@H](c2ccc(/C=C/C(=O)Nc3ccccc3N)cc2)C1 | 43 | 29 | 14 | 3.4 | > 30 | > 30 | 3.5 | 13 | 0.06 | 0.23 | 0.25
3 | CN1C[C@H](C(=O)Nc2ccc(Cl)cc2)[C@@H](c2ccc(/C=C/C(=O)Nc3ccccc3N)cc2F)C1 (racemic) | 21 | 13 | > 30 | 5 | > 30 | > 30 | 5.3 | 46 | 0.1 | 0.23 | 0.22
